Assay results published in ChEMBL document CHEMBL1201862, “PubChem BioAssay data set” (2004).
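Each compound was tested at five concentrations against cells in 96-well plates for 48 hours. GI50 marks 50% less growth.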 Calls of active or inactive are those of the source. Cut-off read from the data, not from the text of the source: active = GI50 up to about 1.1 µM and inactive = higher.

What was measured:
Assay in all cases: NCI-60 cell line screen, 48 h
TK-10 = tested on: TK-10
HOP-62 = tested on: HOP-62
NCI-H226 = tested on: NCI-H226
IGROV-1 = tested on: IGROV-1
HOP-92 = tested on: HOP-92
HCT-116 = tested on: HCT-116
OVCAR-4 = tested on: OVCAR-4
MDA-N = tested on: MDA-N
SNB-75 = tested on: SNB-75
COLO 205 = tested on: COLO 205
SK-MEL-28 = tested on: SK-MEL-28
HCC 2998 = tested on: HCC 2998
MDA-MB-435 = tested on: MDA-MB-435
CCRF-CEM = tested on: CCRF-CEM
MDA-MB-231 = tested on: MDA-MB-231
OVCAR-3 = tested on: OVCAR-3
NCI/ADR-RES = tested on: NCI/ADR-RES
HCT-15 = tested on: HCT-15
SK-OV-3 = tested on: SK-OV-3
KM-20L2 = tested on: KM-20L2

| Compound | GI50 (TK-10) | GI50 (HOP-62) | GI50 (NCI-H226) | GI50 (IGROV-1) | GI50 (HOP-92) | GI50 (HCT-116) | GI50 (OVCAR-4) | GI50 (MDA-N) | GI50 (SNB-75) | GI50 (COLO 205) | GI50 (SK-MEL-28) | GI50 (HCC 2998) | GI50 (MDA-MB-435) | GI50 (CCRF-CEM) | GI50 (MDA-MB-231) | GI50 (OVCAR-3) | GI50 (NCI/ADR-RES) | GI50 (HCT-15) [µM] | GI50 (SK-OV-3) | GI50 (KM-20L2) |
| --- | --- | --- | --- | --- | --- | --- | --- | --- | --- | --- | --- | --- | --- | --- | --- | --- | --- | --- | --- | --- |
| N#Cc1c(Nc2ccccc2)[n+]([O-])c2ccc(Cl)cc2[n+]1[O-] | 4.06 µM (inactive) | 7.67 µM (inactive) | 4.67 µM (inactive) | 1.78 µM (inactive) | 1.73 µM (inactive) | 3.88 µM (inactive) | 1.56 µM (inactive) | 11 µM (inactive) | 25.9 µM (inactive) | 2.33 µM (inactive) | 12.9 µM (inactive) | 4.06 µM (inactive) | 8.99 µM (inactive) | 2.92 µM (inactive) | 9.53 µM (inactive) | 2.99 µM (inactive) | 2.7 µM (inactive) | 1.89 | 21.2 µM (inactive) | – |
| COC(=O)C1(C)NCCc2c1[nH]c1ccccc21 (configuration not stated) | > 100 µM (inactive) | > 100 µM (inactive) | – | > 100 µM (inactive) | > 100 µM (inactive) | > 100 µM (inactive) | > 100 µM (inactive) | – | 16.8 µM (inactive) | > 100 µM (inactive) | > 100 µM (inactive) | > 100 µM (inactive) | – | > 100 µM (inactive) | – | > 100 µM (inactive) | – | > 100 | > 100 µM (inactive) | > 100 µM (inactive) |
| CC(=O)OC1(C)C(=O)OC/C2=C/CN(C)CCC(OC(=O)C(O)(C(C)Cl)CC1C)C2=O.c1ccccc1 (configuration not stated) | > 100 µM (inactive) | > 100 µM (inactive) | > 100 µM (inactive) | > 100 µM (inactive) | > 100 µM (inactive) | > 100 µM (inactive) | > 100 µM (inactive) | > 100 µM (inactive) | > 100 µM (inactive) | > 100 µM (inactive) | > 100 µM (inactive) | > 100 µM (inactive) | > 100 µM (inactive) | > 100 µM (inactive) | > 100 µM (inactive) | > 100 µM (inactive) | > 100 µM (inactive) | > 100 | > 100 µM (inactive) | – |
| C[n+]1c(-c2ccccc2)cc2/c(=C\c3ccccc3)c3ccccc3n21 | 2.72 µM (inactive) | 2.43 µM (inactive) | 0.418 µM (active) | 1.09 µM (active) | 1.69 µM (inactive) | 1.25 µM (inactive) | 1.62 µM (inactive) | 0.948 µM (active) | 0.422 µM (active) | 0.339 µM (active) | 0.871 µM (active) | 3.84 µM (inactive) | 0.726 µM (active) | 0.582 µM (active) | 0.661 µM (active) | 1.34 µM (inactive) | 14.6 µM (inactive) | 3.47 | 4.14 µM (inactive) | – |
| Cc1nc(O)nc(N/N=C/c2ccc(Cl)c(Cl)c2)c1C(=O)Nc1ccc(Cl)c(Cl)c1 | 11.5 µM (inactive) | 10.8 µM (inactive) | 28.4 µM (inactive) | 13.8 µM (inactive) | 17.9 µM (inactive) | 6.75 µM (inactive) | 3.62 µM (inactive) | 15.7 µM (inactive) | 12.3 µM (inactive) | 13.1 µM (inactive) | 8.97 µM (inactive) | > 51.8 µM (inactive) | 11.1 µM (inactive) | 8.65 µM (inactive) | 2.44 µM (inactive) | 9.62 µM (inactive) | 16.3 µM (inactive) | 11.7 | 14 µM (inactive) | – |
| COC(=O)/C=C(/C(=O)OC)c1cc2ccc3c([nH]c4ccccc43)c(C)c-2c1 | 15.2 µM (inactive) | 12.1 µM (inactive) | 5.98 µM (inactive) | 2.74 µM (inactive) | 1.21 µM (inactive) | 4.49 µM (inactive) | 4.95 µM (inactive) | 2.9 µM (inactive) | 5.26 µM (inactive) | 1.75 µM (inactive) | 5.55 µM (inactive) | 3.92 µM (inactive) | 3.94 µM (inactive) | 2.9 µM (inactive) | 3.8 µM (inactive) | 3.4 µM (inactive) | 3.46 µM (inactive) | 3.94 | 7.69 µM (inactive) | – |
| [C-]#[N+][C@@H]1C2[C@H](CC[C@@]1(C)O)C(=C)CC[C@@H]2[C@@]1(C)CC[C@H](Cl)C(C)(C)O1 (some centres not stated) | 16.2 µM (inactive) | – | 4.46 µM (inactive) | 3.49 µM (inactive) | – | 2.23 µM (inactive) | 3.24 µM (inactive) | – | 7.87 µM (inactive) | 3.2 µM (inactive) | 26.3 µM (inactive) | 11.1 µM (inactive) | – | 2.77 µM (inactive) | – | 1.31 µM (inactive) | – | 2.55 | 25.4 µM (inactive) | 6.68 µM (inactive) |
| COc1cc2oc(=O)cc(C)c2cc1[N+](=O)[O-] | 35.7 µM (inactive) | 41.6 µM (inactive) | 8.77 µM (inactive) | 38.9 µM (inactive) | 17.1 µM (inactive) | 15.3 µM (inactive) | 35.1 µM (inactive) | 14.7 µM (inactive) | 57.5 µM (inactive) | 23.9 µM (inactive) | 22.6 µM (inactive) | 14.6 µM (inactive) | 20.1 µM (inactive) | 17.8 µM (inactive) | 22.4 µM (inactive) | 25.4 µM (inactive) | 28.4 µM (inactive) | 17.7 | 84.1 µM (inactive) | – |
| O=C1C=C(O)C(=O)c2c(O)ccc(O)c21 | > 100 µM (inactive) | > 100 µM (inactive) | > 100 µM (inactive) | > 100 µM (inactive) | > 100 µM (inactive) | > 100 µM (inactive) | > 100 µM (inactive) | > 100 µM (inactive) | > 100 µM (inactive) | 92 µM (inactive) | > 100 µM (inactive) | > 100 µM (inactive) | > 100 µM (inactive) | > 100 µM (inactive) | > 100 µM (inactive) | > 100 µM (inactive) | > 100 µM (inactive) | > 100 | > 100 µM (inactive) | – |
| O=c1c2cc(Cl)cc(Cl)c2oc2nc3n(c(=O)c12)CCCS3 | > 100 µM (inactive) | > 100 µM (inactive) | > 100 µM (inactive) | > 100 µM (inactive) | > 100 µM (inactive) | > 100 µM (inactive) | > 100 µM (inactive) | > 100 µM (inactive) | > 100 µM (inactive) | > 100 µM (inactive) | > 100 µM (inactive) | > 100 µM (inactive) | > 100 µM (inactive) | 92.5 µM (inactive) | > 100 µM (inactive) | 95.9 µM (inactive) | > 100 µM (inactive) | > 100 | > 100 µM (inactive) | – |
| CN(C)CCCC1c2ccccc2Oc2ccc(C(F)(F)F)cc21 (configuration not stated) | 15.6 µM (inactive) | 16.5 µM (inactive) | 8.2 µM (inactive) | 14 µM (inactive) | 11.9 µM (inactive) | 11.7 µM (inactive) | 14.5 µM (inactive) | 4.02 µM (inactive) | 14.3 µM (inactive) | 4.65 µM (inactive) | 6.46 µM (inactive) | 1.63 µM (inactive) | 6.64 µM (inactive) | 9.42 µM (inactive) | 12.8 µM (inactive) | 15.3 µM (inactive) | 13.7 µM (inactive) | 16.1 | 16.8 µM (inactive) | – |
| COc1cc(-c2c3c([nH]c(=O)c2C#N)-c2cc([N+](=O)[O-])ccc2CCC3)cc(OC)c1OC | 34.8 µM (inactive) | 19.9 µM (inactive) | 22.7 µM (inactive) | 33.1 µM (inactive) | 25.4 µM (inactive) | 18.8 µM (inactive) | 21.5 µM (inactive) | 21.1 µM (inactive) | 21.7 µM (inactive) | 22 µM (inactive) | 43.5 µM (inactive) | 17.2 µM (inactive) | 25.9 µM (inactive) | 21.7 µM (inactive) | 19.9 µM (inactive) | 15.5 µM (inactive) | 42.4 µM (inactive) | 26.4 | 15.5 µM (inactive) | – |
| CC(=O)c1sc2[n+](c1C)C(=O)/C(=C\c1ccccc1Cl)S2 | 26.9 µM (inactive) | 22.8 µM (inactive) | 13.3 µM (inactive) | 18.3 µM (inactive) | 56.2 µM (inactive) | 20.7 µM (inactive) | 29.2 µM (inactive) | 19.4 µM (inactive) | 26.8 µM (inactive) | 14.9 µM (inactive) | 16.7 µM (inactive) | 20 µM (inactive) | 15.3 µM (inactive) | 27.6 µM (inactive) | 25.4 µM (inactive) | 18 µM (inactive) | 21 µM (inactive) | 14.1 | 25.1 µM (inactive) | – |
| CC1=N/C(=C\c2cccc3ccccc23)C(=O)O1 | > 100 µM (inactive) | > 100 µM (inactive) | – | > 100 µM (inactive) | > 100 µM (inactive) | > 100 µM (inactive) | – | – | – | > 100 µM (inactive) | > 100 µM (inactive) | > 100 µM (inactive) | – | > 100 µM (inactive) | – | – | – | > 100 | – | > 100 µM (inactive) |
| COc1ccc(-c2oc3ccc(C)cc3c(=O)c2O)cc1 | 32.1 µM (inactive) | > 100 µM (inactive) | > 100 µM (inactive) | > 100 µM (inactive) | > 100 µM (inactive) | 52 µM (inactive) | 57.7 µM (inactive) | > 100 µM (inactive) | 76.7 µM (inactive) | > 100 µM (inactive) | > 100 µM (inactive) | > 100 µM (inactive) | > 100 µM (inactive) | > 100 µM (inactive) | 71.4 µM (inactive) | > 100 µM (inactive) | 35.4 µM (inactive) | 24.5 | > 100 µM (inactive) | – |
| CC1=CC(=O)c2c(O)cccc2C1=O [PLUMBAGIN] | 1.71 µM (inactive) | 5.52 µM (inactive) | 6.55 µM (inactive) | 1.78 µM (inactive) | 0.465 µM (active) | 1.66 µM (inactive) | 1.76 µM (inactive) | 1.72 µM (inactive) | 5.51 µM (inactive) | 1.86 µM (inactive) | 1.82 µM (inactive) | 2.07 µM (inactive) | 1.73 µM (inactive) | 0.208 µM (active) | 1.92 µM (inactive) | 1.03 µM (active) | 1.76 µM (inactive) | 1.7 | 14.1 µM (inactive) | – |
